Data reported in the supplement of paper PMC10331698.
± gives the standard deviation of the averaged measurements.

Tests used:
Test in all cases: LOEC (log10 uM (lowest observed effect concentration))
[1] = compound: CCNS(=O)(=O)C(F)(F)C(F)(F)C(F)(F)C(F)(F)C(F)(F)C(F)(F)C(F)(F)C(F)(F)F [N-Ethylperfluorooctanesulfonamide]
Description: (§1)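 BioMAP Diversity Plus panel in human primary cell co-cultures, 4 concentrations in duplicate blinded samples. Responses are log10 fold change versus DMSO control, processed with tcpl v2.1.0. A hit is called when responses at any concentration exceed the cutoff (the larger of 3*bmad or log10(1.2)); the lowest observed effect concentration (modl_ga, log10 uM) is reported for hits.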

[2] = compound: NS(=O)(=O)C(F)(F)C(F)(F)C(F)(F)C(F)(F)C(F)(F)C(F)(F)C(F)(F)C(F)(F)F [Perfluorooctanesulfonamide]
Description: as §1

Perfluoroundecanoic acid = compound: O=C(O)C(F)(F)C(F)(F)C(F)(F)C(F)(F)C(F)(F)C(F)(F)C(F)(F)C(F)(F)C(F)(F)C(F)(F)F [Perfluoroundecanoic acid]
Description: as §1

[3] = compound: O=C(O)C(F)(F)OC(F)(F)C(F)(F)OC(F)(F)C(F)(F)OC(F)(F)C(F)(F)C(F)(F)C(F)(F)F [Perfluoro-3,6,9-trioxatridecanoic acid]
Description: as §1

Perfluorononanoic acid = compound: O=C(O)C(F)(F)C(F)(F)C(F)(F)C(F)(F)C(F)(F)C(F)(F)C(F)(F)C(F)(F)F [Perfluorononanoic acid]
Description: as §1

[4] = compound: O=C(O)C=C(C(F)(F)F)C(F)(F)F [3,3-Bis(trifluoromethyl)-2-propenoic acid]
Description: as §1

[5] = compound: OCC(F)(F)OC(F)(F)C(F)(F)OC(F)(F)C(F)(F)OC(F)(F)CO [1H,1H,11H,11H-Perfluorotetraethylene glycol]
Description: as §1

Test System	LOEC (log10 uM) [1]	LOEC (log10 uM) [2]	LOEC (log10 uM) (Perfluoroundecanoic acid)	LOEC (log10 uM) [3]	LOEC (log10 uM) (Perfluorononanoic acid)	LOEC (log10 uM) [4]	LOEC (log10 uM) [5]
hDFCGF CollagenIII down	0.845	1.3	0.845	0.845			
hDFCGF TIMP1 up		1.78					
LPS VCAM1 down		1.78		1.78	1.78	0.573 ± 0.39	
KF3CT ICAM1 down		1.78	0.845	1.3			
MyoF VCAM1 down	1.3	1.3	0.845	0.845	1.78	1.3	
3C uPAR down		1.78		1.54 ± 0.34	1.78		
LPS MCSF down		1.78		1.78		1.31 ± 0.66	
hDFCGF PAI1 down	1.54 ± 0.34	1.3	0.845	0.845			
IMphg IL1a down				1.54 ± 0.34			
BF4T ICAM1 down	1.78	1.54 ± 0.34	0.845	1.07 ± 0.32	1.78		
KF3CT IL8 down		1.78	0.845				
BT xIL17F down	1.54 ± 0.34	1.78		1.78		0.573 ± 0.39	1.78
BT xIL17A down		1.78		1.78		1.78	
hDFCGF MCP1 down	1.78	1.3	0.573 ± 0.39	0.845			1.54 ± 0.34
BF4T SRB down	1.78	1.78	0.845	1.3	1.78		
LPS CD69 down		1.3		1.78	1.78		
hDFCGF ICAM1 down	1.54 ± 0.34	1.3	0.845	1.07 ± 0.32	1.78		
BE3C SRB down	1.78	1.78	0.845	0.845	1.78		
hDFCGF IL8 down	1.78	1.3	0.845	1.3			
BF4T MMP3 down		1.78	0.845	1.07 ± 0.32	1.78		
KF3CT MIG down		1.78	0.845	1.3			
SAg CD40 down	1.3	1.3	0.845	1.78	1.78		1.78
SAg CD69 down	1.3	1.54 ± 0.34	0.845	1.54 ± 0.34	1.78	1.78	
4H VCAM1 down	1.78	1.78		1.54 ± 0.34		0.573 ± 0.39	
3C VCAM1 down	1.78	1.78		1.78	1.78	1.54 ± 0.34	
MyoF Decorin down	1.78		0.845	1.3			
